Laboratory results as given in US7199132B2, “Tropane analogs and methods for inhibition of monoamine transport” (Organix, Inc., priority 2001, dated 2007).

What was measured:
[1] = molecular target: T1, dopamine transporter (Macaca fascicularis, UniProt Q9GJT6); assay: Dopamine transporter assay: inhibition of {3H}WIN 35,428 binding in caudate-putamen membranes; design: species or system rhesus or cynomolgus monkey; settings: for IC50: IC50 (nM) DAT, inhibition of {3H}WIN 35,428 binding, monkey caudate-putamen, mean of 2 or more independent experiments in triplicate; for SERT/DAT: selectivity ratio IC50 SERT / IC50 DAT
T1 construct: The caudate-putamen was dissected from coronal slices and yielded 1.4±0.4 g tissue; Membranes were prepared as described previously; from tissue; host or cells: caudate-putamen membranes of cynomolgus or rhesus monkey brain
T1 sequence (Q9GJT6 whole entry): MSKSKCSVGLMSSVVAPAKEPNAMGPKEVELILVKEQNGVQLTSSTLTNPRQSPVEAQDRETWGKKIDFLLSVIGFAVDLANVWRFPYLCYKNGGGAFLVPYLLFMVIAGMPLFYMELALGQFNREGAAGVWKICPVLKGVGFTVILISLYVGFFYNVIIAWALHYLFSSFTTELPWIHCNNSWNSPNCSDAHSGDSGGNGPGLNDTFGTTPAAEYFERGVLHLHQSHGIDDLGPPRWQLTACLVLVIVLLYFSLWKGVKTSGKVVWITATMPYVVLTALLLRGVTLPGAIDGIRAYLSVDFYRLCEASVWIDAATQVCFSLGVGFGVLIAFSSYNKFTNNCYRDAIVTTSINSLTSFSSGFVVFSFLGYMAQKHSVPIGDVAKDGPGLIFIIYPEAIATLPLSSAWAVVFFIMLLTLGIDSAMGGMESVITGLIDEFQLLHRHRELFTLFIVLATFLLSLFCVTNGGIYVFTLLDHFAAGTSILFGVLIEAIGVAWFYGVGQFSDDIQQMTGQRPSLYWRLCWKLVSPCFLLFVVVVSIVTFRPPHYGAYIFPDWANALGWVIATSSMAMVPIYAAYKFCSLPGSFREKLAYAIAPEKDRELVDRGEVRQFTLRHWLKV

[2] = molecular target: T2, serotonin transporter (Macaca mulatta, UniProt Q9MYX0); assay: Serotonin transporter assay: inhibition of {3H}citalopram binding in caudate-putamen membranes; design: species or system rhesus or cynomolgus monkey; settings: IC50 (nM) SERT, monkey caudate-putamen, mean of 2 or more independent experiments in triplicate
T2 construct: The serotonin transporter was assayed in caudate-putamen membranes using conditions similar to those for the dopamine transporter; from tissue; host or cells: caudate-putamen membranes of cynomolgus or rhesus monkey brain
T2 sequence (Q9MYX0 whole entry): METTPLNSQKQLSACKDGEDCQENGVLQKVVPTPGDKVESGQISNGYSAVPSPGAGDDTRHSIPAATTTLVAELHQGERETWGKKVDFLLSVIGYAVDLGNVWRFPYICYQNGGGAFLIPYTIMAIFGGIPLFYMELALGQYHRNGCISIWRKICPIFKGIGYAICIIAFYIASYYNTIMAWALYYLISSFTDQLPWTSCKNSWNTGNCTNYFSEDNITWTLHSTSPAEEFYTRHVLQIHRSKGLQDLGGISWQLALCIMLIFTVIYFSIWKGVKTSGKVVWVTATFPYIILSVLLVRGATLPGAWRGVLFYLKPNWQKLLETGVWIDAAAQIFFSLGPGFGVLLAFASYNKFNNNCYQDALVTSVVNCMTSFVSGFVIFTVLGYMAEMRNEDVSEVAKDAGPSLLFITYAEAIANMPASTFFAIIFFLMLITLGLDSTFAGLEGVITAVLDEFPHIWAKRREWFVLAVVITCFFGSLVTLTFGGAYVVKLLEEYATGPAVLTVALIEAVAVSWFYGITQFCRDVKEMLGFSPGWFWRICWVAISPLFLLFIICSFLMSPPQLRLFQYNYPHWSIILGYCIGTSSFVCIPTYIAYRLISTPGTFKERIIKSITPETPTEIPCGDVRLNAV

| SMILES | IC50 [1] [nM] | melting point [°C] | IC50 [2] [nM] | SERT/DAT [1] |
| --- | --- | --- | --- | --- |
| CCC(=O)[C@@H]1[C@H]2[C@H](O)C[C@@H](C[C@@H]1c1ccc(Cl)c(Cl)c1)N2C (relative stereo) [Compound 23, 1-{3β-(3,4-Dichlorophenyl)-7β-hydroxy-8-methyl-8-azabicyclo{3.2.1}oct-2-yl}propan-1-one] | 0.81 | 195.5 to 196.5 | 97 |  |
| COC(=O)C1=C(c2ccc3ccccc3c2)CC2C(O)CC1N2C (stereo not drawn) [Compound 7b, 2-Carbomethoxy-3-(2-naphthyl)-6β-hydroxy-8-methyl-8-azabicyclo{3.2.1}oct-2-ene] |  | 165 to 167 | 260 | 1 |
| COC(=O)C1=C(c2ccccc2)CC2C(O)CC1N2C (stereo not drawn) [Compound 7d, 2-Carbomethoxy-3-phenyl-6β-hydroxy-8-methyl-8-azabicyclo{3.2.1}oct-2-ene] | > 150000 | 165 to 167 | > 100000 | 1 |
| CCC(=O)[C@@H]1[C@H]2[C@H](O)C[C@@H](C[C@H]1c1ccc(Cl)c(Cl)c1)N2C (relative stereo) [Compound 26, 1-{3α-(3,4-Dichlorophenyl)-7β-hydroxy-8-methyl-8-azabicyclo{3.2.1}oct-2-yl}propan-1-one] | 1.1 | 113.1 to 114.1 | 2520 |  |
| COC(=O)[C@H]1[C@@H](c2ccc3ccccc3c2)C[C@@H]2[C@@H](O)C[C@H]1N2C (relative stereo) [Compound 14b, 2β-Carbomethoxy-3β-(2-naphthyl)-6β-hydroxy-8-methyl-8-azabicyclo{3.2.1}octane] |  | 84 to 86 | 34.2 | 4 |
| COC(=O)C1C(c2ccc(F)cc2)CC2C(O)CC1N2C (stereo not drawn) [Compound 14c, 2β-Carbomethoxy-3β-(4-fluorophenyl)-6β-hydroxy-8-methyl-8-azabicyclo{3.2.1}octane] |  | 162 to 164 | > 20000 | >42 |
| COC(=O)[C@@H]1[C@H]2[C@H](O)C[C@@H](C[C@H]1c1ccc3ccccc3c1)N2C (relative stereo) [Compound 18b, 2β-Carbomethoxy-3α-(2-naphthyl)-7β-hydroxy-8-methyl-8-azabicyclo{3.2.1}octane] |  | 140.1 to 141.9 | 94 | 34 |
| COC(=O)C1=C(c2ccc(Cl)c(Cl)c2)C[C@@H]2[C@@H](O)C[C@H]1N2C (racemic) [Compound 7a, 2-Carbomethoxy-3-(3,4-dichlorophenyl)-6β-hydroxy-8-methyl-8-azabicyclo{3.2.1}oct-2-ene] |  | 94 to 96 | 3320 | 60 |
| COC(=O)[C@@H]1[C@H]2[C@H](O)C[C@@H](C[C@@H]1c1ccc(F)cc1)N2C (racemic) [Compound 15c, 2β-Carbomethoxy-3β-(4-fluorophenyl)-7β-hydroxy-8-methyl-8-azabicyclo{3.2.1}octane] |  | 179.3 to 181.3 | > 10000 | >80 |
| COC(=O)[C@H]1[C@@H](c2ccccc2)C[C@@H]2[C@@H](O)C[C@H]1N2C (relative stereo) [Compound 14d, 2β-Carbomethoxy-3β-phenyl-6β-hydroxy-8-methyl-8-azabicyclo{3.2.1}octane] |  | 150 to 152 | 88000 | 14 |
| COC(=O)C1=C(c2ccccc2)C[C@@H]2C[C@@H](O)[C@H]1N2C (racemic) [Compound 8d, 2-Carbomethoxy-3-phenyl-7β-hydroxy-8-methyl-8-azabicyclo{3.2.1}oct-2-ene] | > 10000 | 113 to 114 | > 10000 | 1 |
| COC(=O)[C@@H]1[C@H]2[C@H](O)C[C@@H](C[C@H]1c1ccc(F)cc1)N2C (relative stereo) [Compound 18c, 2β-Carbomethoxy-3α-(4-fluorophenyl)-7β-hydroxy-8-methyl-8-azabicyclo{3.2.1}octane] |  | 177.2 to 179 | > 20000 | >120 |
| COC(=O)[C@H]1[C@@H](c2ccc(Cl)c(Cl)c2)C[C@@H]2[C@@H](O)C[C@H]1N2C (relative stereo) [Compound 14a, 2β-Carbomethoxy-3β-(3,4-dichlorophenyl)-6β-hydroxy-8-methyl-8-azabicyclo{3.2.1}octane] |  | 93.5 to 95.5 | 166 | 55 |
| COC(=O)C1C(c2ccc(Cl)c(Cl)c2)CC2CC(O)C1N2C (racemic) [Compound 15a, 2β-Carbomethoxy-3β-(3,4-dichlorophenyl)-7β-hydroxy-8-methyl-8-azabicyclo{3.2.1}octane] |  | 185.5 to 186.5 | 27.7 | 20 |
| COC(=O)[C@@H]1[C@H]2[C@H](O)C[C@@H](C[C@@H]1c1ccc3ccccc3c1)N2C (relative stereo) [Compound 15b, 2β-Carbomethoxy-3β-(2-naphthyl)-7β-hydroxy-8-methyl-8-azabicyclo{3.2.1}octane] |  | 207.5 to 208.5 | 5.57 | 4 |
